Measurements: patent EP0081312A2, “Antibiotics, their preparation and use” (BEECHAM GROUP PLC, priority 1981, dated 1983)
In brackets after ≈: the same amount, converted by molar mass. Read-outs that look alike come from different tables or passages of the source.

Tests used:
Test in all cases: MIC, concentration required to inhibit growth of bacteria
Assay type in all cases: cell-based
Citrobacter freundii Ei = system: Citrobacter freundii Ei
Enterobacter cloacae N1 = system: Enterobacter cloacae N1
Escherichia coli 0111 = system: Escherichia coli 0111
Escherichia coli JT39 = system: Escherichia coli JT39
Klebsiella aerogenes A = system: Klebsiella aerogenes A
Proteus mirabilis C977 = system: Proteus mirabilis C977
Proteus morganii 1580 = conditions: Morganella morganii
Proteus rettgeri WM16 = conditions: Providencia rettgeri
Proteus vulgaris WO91 = system: Proteus vulgaris WO91
Pseudomonas aeruginosa A = system: Pseudomonas aeruginosa A
[1] = system: Salmonella typhirmurium CT10
Serratia marcescens US20 = system: Serratia marcescens US20
Shigella sonnei MB 11967 = conditions: MB11967
Bacillus Subtilis A = system: Bacillus Subtilis A
[2] = system: Staphylococcus aureux Oxford
[3] = system: Staphylococcus aureus Russell
[4] = system: Staphylococcus aureus 1517
Streptococcus faecalis I = conditions: Enterococcus faecalis
[5] = system: Streptococcus pneumoniae CN33
[6] = system: Streptococcus pyogenes CN10
Escherichia coli ESS = system: Escherichia coli ESS
[7] = Citrobacter freundii Ei, read-out: MIC
[8] = Klebsiella aerogenes A, read-out: MIC
[9] = Proteus morganii 1580, read-out: MIC
[10] = Proteus rettgeri WM16, read-out: MIC
[11] = Pseudomonas aeruginosa A, read-out: MIC
[12] = Bacillus Subtilis A, read-out: MIC
[13] = Staphylococcus aureux Oxford, read-out: MIC
[14] = Staphylococcus aureus Russell, read-out: MIC
[15] = Streptococcus faecalis I, read-out: MIC

Compound	MIC (Citrobacter freundii Ei; Citrobacter freundii) [µg/mL]	MIC (Enterobacter cloacae N1) [µg/mL]	MIC (Escherichia coli 0111) [µg/mL]	MIC (Escherichia coli JT39) [µg/mL]	MIC (Klebsiella aerogenes A; Klebsiella aerogenes) [µg/mL]	MIC (Proteus mirabilis C977) [µg/mL]	MIC (Proteus morganii 1580; 1580) [µg/mL]	MIC (Proteus rettgeri WM16; WM16) [µg/mL]	MIC (Proteus vulgaris WO91) [µg/mL]	MIC (Pseudomonas aeruginosa A; Pseudomonas aeruginosa) [µg/mL]	MIC [1] [µg/mL]	MIC (Serratia marcescens US20) [µg/mL]	MIC (Shigella sonnei MB 11967) [µg/mL]	MIC (Bacillus Subtilis A; Bacillus subtilis) [µg/mL]	MIC ([2]; Staphylococcus) [µg/mL]	MIC ([3]; Staphylococcus aureus) [µg/mL]	MIC [4] [µg/mL]	MIC (Streptococcus faecalis I) [µg/mL]	MIC [6] [µg/mL]	MIC (Escherichia coli ESS) [µg/mL]	also measured
CC(O)C1C(=O)N2C(C(=O)[O-])=C(S/C=C/C(N)=O)CC12.[Na+] (stereo not shown) [Example 5, Sodium 3-[E-2-carbamoylethenylthio]-6-[1-hydroxyethyl]-7-oxo-1-azabicyclo[3.2.0]hept-2-ene-2-carboxylate]	1.6	1.6	0.4	0.8	1.6	3.1	6.2	6.2	6.2	> 100	1.6	3.1	1.6	0.2	0.8	1.6	50	6.2	0.2	0.4	MIC [5]: ≤ 0.1 µg/mL
CC(O)C1C(=O)N2C(C(=O)[O-])=C(S/C=C\C(N)=O)CC12.[Na+] (stereo not shown) [Example 6, Sodium 3-[Z-2-carbamoylethenylthio]-6-[1-hydroxyethyl]-7-oxo-1-azabicyclo[3.2.0]hept-2-ene-2-carboxylate]	50	25	6.2	12.5	6.2	50	50	50	25	> 100	6.2	12.5	12.5	1.6	1.6	3.1	100	50	3.1	3.1	
C[C@@H](OC=O)[C@H]1C(=O)N2C(C(=O)[O-])=C(S/C=C\C(=O)NCc3ccccc3)C[C@H]12.[Na+] [Example 3, Sodium (5R,6S)-3-[(Z)-2-benzylaminocarbonylethenylthio]-6-[(R)-1-formyloxyethyl]-7-oxo-1-azabicyclo[3.2.0]hept-2-ene-2-carboxylate]	3.1	3.1	0.8	0.4	0.4	1.6	6.2	3.1	0.4	50	0.4	3.1	1.6	≤ 0.1	≤ 0.1		3.1	0.8	0.8	0.4	MIC [5]: 0.8 µg/mL
C[C@H](O)[C@@H]1C(=O)N2C(C(=O)[O-])=C(S/C=C\C(=O)NCc3ccccc3)C[C@H]12.[Na+] [Example 2, Sodium (5R,6R)-3-[(Z)-2 benzylaminocarbonylethenylthio]-6-[(S)-1-hydroxyethyl]-7-oxo-1-azabicyclo[3.2.0]hept-2-ene-2-carboxylate]	≤ 0.1	0.2	0.2	0.2	0.2	≤ 0.1	0.8	0.4	0.2	25	≤ 0.1	0.4	≤ 0.1	≤ 0.1	≤ 0.1	≤ 0.1	1.6	0.2	≤ 0.1	≤ 0.1	
C[C@H](O)[C@@H]1C(=O)N2C(C(=O)O)=C(S/C=C\C(=O)N(C(=O)NC3CCCCC3)C3CCCCC3)C[C@H]12 [Example 1]			25 (≈ 49.4 µM)								25 (≈ 49.4 µM)		25 (≈ 49.4 µM)							1.6 (≈ 3.16 µM)	MIC (Citrobacter freundii Ei; [7]): 12.5 µg/mL (≈ 24.7 µM); MIC (Enterobacter cloacae N1; read-out: MIC): 50 µg/mL (≈ 98.9 µM); MIC (Escherichia coli JT39; read-out: MIC): 50 µg/mL (≈ 98.9 µM); MIC (Klebsiella aerogenes A; [8]): 25 µg/mL (≈ 49.4 µM); MIC (Proteus mirabilis C977; read-out: MIC): 50 µg/mL (≈ 98.9 µM); MIC (Proteus morganii 1580; [9]): 25 µg/mL (≈ 49.4 µM); MIC (Proteus rettgeri WM16; [10]): 50 µg/mL (≈ 98.9 µM); MIC (Proteus vulgaris WO91; read-out: MIC): 25 µg/mL (≈ 49.4 µM); MIC (Pseudomonas aeruginosa A; [11]): > 100 µg/mL; MIC (Serratia marcescens US20; read-out: MIC): 25 µg/mL (≈ 49.4 µM); MIC (Bacillus Subtilis A; [12]): ≤ 0.1 µg/mL; MIC [2, 13]: 0.4 µg/mL (≈ 0.791 µM); MIC [3, 14]: 0.8 µg/mL (≈ 1.58 µM); MIC ([4]; read-out: MIC): 6.2 µg/mL (≈ 12.3 µM); MIC (Streptococcus faecalis I; [15]): 0.8 µg/mL (≈ 1.58 µM)
C[C@@H](O)[C@H]1C(=O)N2C(C(=O)O)=C(S/C=C\C(=O)NCc3ccccc3)C[C@H]12 [Example 4, Sodium (5R,6S)-3-[(Z)-2 benzylaminocarbonylethenylthio]-6-[(R)-1-hydroxyethyl]-7-oxo-1-azabicyclo[3.2.0]hept-2-ene-2-carboxylate.]			0.2								0.2		0.4							≤ 0.1	MIC (Citrobacter freundii Ei; [7]): 0.8 µg/mL; MIC (Enterobacter cloacae N1; read-out: MIC): 1.6 µg/mL; MIC (Escherichia coli JT39; read-out: MIC): ≤ 0.1 µg/mL; MIC (Klebsiella aerogenes A; [8]): ≤ 0.1 µg/mL; MIC (Proteus mirabilis C977; read-out: MIC): 0.8 µg/mL; MIC (Proteus morganii 1580; [9]): 1.6 µg/mL; MIC (Proteus rettgeri WM16; [10]): 3.1 µg/mL; MIC (Proteus vulgaris WO91; read-out: MIC): 0.4 µg/mL; MIC (Pseudomonas aeruginosa A; [11]): 50 µg/mL; MIC (Serratia marcescens US20; read-out: MIC): 0.8 µg/mL; MIC (Bacillus Subtilis A; [12]): ≤ 0.1 µg/mL; MIC [2, 13]: ≤ 0.1 µg/mL; MIC [3, 14]: ≤ 0.1 µg/mL; MIC ([4]; read-out: MIC): 6.2 µg/mL; MIC (Streptococcus faecalis I; [15]): 0.4 µg/mL; MIC ([5]; read-out: MIC): ≤ 0.1 µg/mL; MIC ([6]; read-out: MIC): ≤ 0.1 µg/mL
